Where “and” joins values, the source holds several entries; their conditions need not be identical. Equal entries are not always repeated. Toxic doses and inconclusive results are not listed. Rule as the data show it: active = T/C of 150% or more; inactive = T/C below 125%.
Tested on: L1210 leukemia ip in BDF1 mice, survival T/C
Experiment: NCI In Vivo Anticancer Drug Screen. Data for tumor model L1210 Leukemia (intraperitoneal) in B6D2F1 (BDF1) mice
Conditions: endpoint: mean survival time, higher = longer survival
How it was run: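 Tumor was transplanted into mice, which were then dosed with test compound or vehicle alone. Survival was recorded for each group, and the treated figure was expressed relative to the control figure.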

[1] = dose: 100.0 mg/kg/injection, schedule: Q01DX001 (ip), vehicle: carboxymethylcellulose (CMC)
[2] = dose: 200.0 mg/kg/injection, schedule: Q01DX001 (ip), vehicle: carboxymethylcellulose (CMC)
[3] = dose: 400.0 mg/kg/injection, schedule: Q01DX001 (ip), vehicle: carboxymethylcellulose (CMC)
[4] = dose: 25.0 mg/kg/injection, schedule: Q01DX009 (ip), vehicle: saline
[5] = dose: 50.0 mg/kg/injection, schedule: Q01DX009 (ip), vehicle: saline
[6] = dose: 100.0 mg/kg/injection, schedule: Q04DX003 (ip), vehicle: saline
[7] = dose: 200.0 mg/kg/injection, schedule: Q04DX003 (ip), vehicle: saline
[8] = dose: 100.0 mg/kg/injection, schedule: Q01DX009 (ip), vehicle: Klucel (hydroxypropylcellulose) (HPC)
[9] = dose: 100.0 mg/kg/injection, schedule: Q01DX001 (ip), vehicle: Klucel (hydroxypropylcellulose) (HPC)
[10] = dose: 200.0 mg/kg/injection, schedule: Q01DX001 (ip), vehicle: Klucel (hydroxypropylcellulose) (HPC)
[11] = dose: 400.0 mg/kg/injection, schedule: Q01DX001 (ip), vehicle: Klucel (hydroxypropylcellulose) (HPC)
[12] = dose: 75.0 mg/kg/injection, schedule: Q01DX001 (ip), vehicle: other
[13] = dose: 150.0 mg/kg/injection, schedule: Q01DX001 (ip), vehicle: other
[14] = dose: 300.0 mg/kg/injection, schedule: Q01DX001 (ip), vehicle: other

Measured: T/C

C[C@]12CC[C@H](O)CC1=CC[C@@H]1[C@@H]2CC[C@]2(C)c3nc4ccccc4cc3C[C@@H]12
inactive: dose: 15.6 mg/kg/injection, schedule: Q01DX Z (sc), vehicle: steriod suspending solution 94 % of control | dose: 31.3 mg/kg/injection, schedule: Q01DX Z (sc), vehicle: steriod suspending solution 93 % of control | dose: 62.5 mg/kg/injection, schedule: Q01DX Z (sc), vehicle: steriod suspending solution 94 % of control | dose: 100.0 mg/kg/injection, schedule: Q01DX009 (sc), vehicle: steriod suspending solution 94 % of control | dose: 100.0 mg/kg/injection, schedule: Q04DX003 (ip), vehicle: steriod suspending solution 98 % of control | dose: 125.0 mg/kg/injection, schedule: Q01DX Z (sc), vehicle: steriod suspending solution 96 % of control | dose: 200.0 mg/kg/injection, schedule: Q01DX009 (sc), vehicle: steriod suspending solution 92 % of control | dose: 200.0 mg/kg/injection, schedule: Q04DX003 (ip), vehicle: steriod suspending solution 107 % of control | dose: 250.0 mg/kg/injection, schedule: Q01DX Z (sc), vehicle: steriod suspending solution 104 % of control | dose: 400.0 mg/kg/injection, schedule: Q01DX009 (sc), vehicle: steriod suspending solution 89 % of control | dose: 400.0 mg/kg/injection, schedule: Q04DX003 (ip), vehicle: steriod suspending solution 106 % of control | dose: 500.0 mg/kg/injection, schedule: Q01DX Z (sc), vehicle: steriod suspending solution 94 % of control

Cc1ccc([N+](=O)[O-])cc1NC(=O)c1ccccc1
inactive: [1] 93 % of control | [2] 96 % of control | [3] 93 % of control

COc1ccc(/C=C/[N+](=O)[O-])cc1O
inactive: [4] 110 % of control | dose: 25.0 mg/kg/injection, schedule: Q04DX003 (ip), vehicle: saline 98 % of control | [5] 102 % of control | dose: 50.0 mg/kg/injection, schedule: Q04DX003 (ip), vehicle: saline 98 % of control | [6] 100 % of control | [7] 86 % of control

OC(CBr)C(O)CBr (stereo unspecified)
inactive: dose: 12.5 mg/kg/injection, schedule: Q01DX009 (ip), vehicle: saline 101 % of control | [4] 97 % of control | [5] 97 % of control

COc1c(NC(=O)c2ccccc2Cl)cccc1[N+](=O)[O-]
inactive: dose: 25.0 mg/kg/injection, schedule: Q01DX009 (ip), vehicle: Klucel (hydroxypropylcellulose) (HPC) 100 % of control | dose: 50.0 mg/kg/injection, schedule: Q01DX009 (ip), vehicle: Klucel (hydroxypropylcellulose) (HPC) 88 % of control | [8] 91 % of control and 92 % of control

O=C1Cc2cc3c(cc2C=C2CCCN12)OCO3
inactive: dose: 50.0 mg/kg/injection, schedule: Q01DX001 (ip), vehicle: Klucel (hydroxypropylcellulose) (HPC) 103 % of control | [9] 97 % of control | [10] 101 % of control

CCCCC1=CC(=O)C2CCCCC2C1=O (stereo unspecified)
inactive: [9] 102 % of control | [10] 105 % of control | [11] 92 % of control

O=C(c1ccc(O)cc1)c1c[nH]c2c(O)ccc(O)c12
inactive: dose: 25.0 mg/kg/injection, schedule: Q04DX002 (ip), vehicle: saline + alcohol 98 % of control | dose: 50.0 mg/kg/injection, schedule: Q04DX002 (ip), vehicle: saline + alcohol 91 % of control

CC(Cc1ccccc1)Nc1ccccn1 (stereo unspecified)
inactive: [12] 97 % of control | [13] 97 % of control | [14] 95 % of control

CC(=O)Nc1cc(CN2CCCCC2)c(O)c2ncccc12
inactive: [12] 120 % of control | [13] 105 % of control | [14] 107 % of control

C=CCc1cccc(O)c1O
inactive: dose: 12.5 mg/kg/injection, schedule: Q04DX002 (ip), vehicle: saline with Tween-80 108 % of control | dose: 25.0 mg/kg/injection, schedule: Q04DX002 (ip), vehicle: saline with Tween-80 96 % of control | dose: 50.0 mg/kg/injection, schedule: Q04DX002 (ip), vehicle: saline with Tween-80 108 % of control

COc1ccccc1C(O)c1cnc(C)n1Cc1ccccc1 (stereo unspecified)
inactive: [9] 113 % of control | [8] 96 % of control and 97 % of control | dose: 100.0 mg/kg/injection, schedule: Q04DX002 (ip), vehicle: Klucel (hydroxypropylcellulose) (HPC) 96 % of control and 98 % of control | dose: 100.0 mg/kg/injection, schedule: Q04DX003 (ip), vehicle: Klucel (hydroxypropylcellulose) (HPC) 92 % of control | [10] 100 % of control | dose: 200.0 mg/kg/injection, schedule: Q01DX009 (ip), vehicle: Klucel (hydroxypropylcellulose) (HPC) 96 % of control and 103 % of control | dose: 200.0 mg/kg/injection, schedule: Q04DX002 (ip), vehicle: Klucel (hydroxypropylcellulose) (HPC) 98 % of control and 92 % of control | dose: 200.0 mg/kg/injection, schedule: Q04DX003 (ip), vehicle: Klucel (hydroxypropylcellulose) (HPC) 92 % of control | [11] 95 % of control | dose: 400.0 mg/kg/injection, schedule: Q01DX009 (ip), vehicle: Klucel (hydroxypropylcellulose) (HPC) 93 % of control and 97 % of control | dose: 400.0 mg/kg/injection, schedule: Q04DX002 (ip), vehicle: Klucel (hydroxypropylcellulose) (HPC) 95 % of control and 92 % of control | dose: 400.0 mg/kg/injection, schedule: Q04DX003 (ip), vehicle: Klucel (hydroxypropylcellulose) (HPC) 95 % of control

S=C(S)N1CCOCC1
inactive: dose: 50.0 mg/kg/injection, schedule: Q01DX009 (ip), vehicle: saline sonified 104 % of control | dose: 100.0 mg/kg/injection, schedule: Q01DX001 (ip), vehicle: saline 105 % of control | dose: 100.0 mg/kg/injection, schedule: Q01DX009 (ip), vehicle: saline sonified 100 % of control | dose: 100.0 mg/kg/injection, schedule: Q01DX009 (ip), vehicle: saline 98 % of control | [6] 93 % of control | dose: 200.0 mg/kg/injection, schedule: Q01DX001 (ip), vehicle: saline 97 % of control | dose: 200.0 mg/kg/injection, schedule: Q01DX009 (ip), vehicle: saline sonified 94 % of control | dose: 200.0 mg/kg/injection, schedule: Q01DX009 (ip), vehicle: saline 106 % of control | [7] 97 % of control | dose: 400.0 mg/kg/injection, schedule: Q01DX009 (ip), vehicle: saline 96 % of control | dose: 400.0 mg/kg/injection, schedule: Q04DX003 (ip), vehicle: saline 95 % of control

ON=C(CCl)CCl
inactive: dose: 6.25 mg/kg/injection, schedule: Q01DX009 (ip), vehicle: saline 89 % of control | dose: 12.5 mg/kg/injection, schedule: Q01DX001 (ip), vehicle: saline 113 % of control | dose: 25.0 mg/kg/injection, schedule: Q01DX001 (ip), vehicle: saline 98 % of control

C=CCP(c1ccccc1)c1ccccc1
inactive: dose: 100.0 mg/kg/injection, schedule: Q04DX002 (ip), vehicle: saline 98 % of control | dose: 200.0 mg/kg/injection, schedule: Q04DX002 (ip), vehicle: saline 91 % of control

SC1c2cc(Cl)ccc2-c2c(Cl)cc(Cl)cc21 (stereo unspecified)
inactive: [1] 93 % of control | [2] 98 % of control | [3] 117 % of control

O=[N+]([O-])c1ccc(-c2cnc(Br)c3ccccc23)cc1
inactive: dose: 25.0 mg/kg/injection, schedule: Q04DX003 (ip), vehicle: DMSO 96 % of control | dose: 50.0 mg/kg/injection, schedule: Q04DX003 (ip), vehicle: DMSO 93 % of control | dose: 100.0 mg/kg/injection, schedule: Q04DX003 (ip), vehicle: DMSO 93 % of control | dose: 200.0 mg/kg/injection, schedule: Q04DX003 (ip), vehicle: DMSO 93 % of control | dose: 400.0 mg/kg/injection, schedule: Q04DX003 (ip), vehicle: DMSO 93 % of control

Oc1c2ccsc2cc2ccsc12
inactive: dose: 100.0 mg/kg/injection, schedule: Q01DX001 (ip), vehicle: saline with Tween-80 94 % of control | dose: 200.0 mg/kg/injection, schedule: Q01DX001 (ip), vehicle: saline with Tween-80 94 % of control | dose: 400.0 mg/kg/injection, schedule: Q01DX001 (ip), vehicle: saline with Tween-80 91 % of control

CCSP(=S)(SCC)SCC
inactive: dose: 75.0 mg/kg/injection, schedule: Q04DX003 (ip), vehicle: Klucel (hydroxypropylcellulose) (HPC) 94 % of control | dose: 150.0 mg/kg/injection, schedule: Q04DX003 (ip), vehicle: Klucel (hydroxypropylcellulose) (HPC) 92 % of control | dose: 300.0 mg/kg/injection, schedule: Q04DX003 (ip), vehicle: Klucel (hydroxypropylcellulose) (HPC) 120 % of control

Reference: PubChem BioAssay AID248 (DTP/NCI, 2004)
